Measurements as given in PubChem BioAssay AID1259371 (The Scripps Research Institute Molecular Screening Center, 2018).
Active and inactive are the calls of the source. The rule behind the calls is not given here.

Target: Microphthalmia-associated transcription factor (Homo sapiens) (UniProt O75030)
Assay: MITF inhibitors, potency by titration, dose response, biochemical, AlphaScreen, human (AID 1259371)
Settings: AlphaScreen biochemical MITF assay, signal inhibition

Chain of Microphthalmia-associated transcription factor (Homo sapiens) (O75030 whole entry, looked up): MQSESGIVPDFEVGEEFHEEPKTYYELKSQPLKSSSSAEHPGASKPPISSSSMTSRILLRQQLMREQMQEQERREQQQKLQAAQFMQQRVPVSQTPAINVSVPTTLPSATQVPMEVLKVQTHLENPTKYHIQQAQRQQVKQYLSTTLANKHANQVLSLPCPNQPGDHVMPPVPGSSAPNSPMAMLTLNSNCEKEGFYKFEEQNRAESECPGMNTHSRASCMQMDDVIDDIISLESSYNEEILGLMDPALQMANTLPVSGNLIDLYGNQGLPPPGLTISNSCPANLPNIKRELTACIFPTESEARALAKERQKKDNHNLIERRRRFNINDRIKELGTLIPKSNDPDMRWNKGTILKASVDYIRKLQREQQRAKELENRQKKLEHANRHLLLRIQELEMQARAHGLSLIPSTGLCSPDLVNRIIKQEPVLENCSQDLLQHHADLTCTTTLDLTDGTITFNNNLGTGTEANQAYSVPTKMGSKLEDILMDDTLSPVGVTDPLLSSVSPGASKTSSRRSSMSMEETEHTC

IC50	Compound
> 6480 nM (inactive)	C/C=C\C1=C(C(=O)O)N2C(=O)C(NC(=O)C(N)c3ccc(O)cc3)C2SC1 (configuration not stated)
> 6480 nM (inactive)	O=C1N[C@@H](Cc2ccccc2)C(=O)N2CCN(C(=O)NCc3ccccc3)C[C@H]12
916 nM	CC(C)(C)OC(=O)N1C(C(=O)O)CSC1c1cc2c(cc1[N+](=O)[O-])OCO2 (configuration not stated)
inactive	Cc1n[nH]c(=O)nc1NNc1ccc(C(=O)O)cc1
> 2160 nM (inactive)	c1ccc2c(c1)OCC(c1nc3c(-c4ccncc4)cncc3[nH]1)O2 (configuration not stated)
inactive	O=C(O)c1coc(CNC(=O)c2cocc2C(=O)O)c1
inactive	CN1CC(=O)N2CCN(C(=O)NC3CCCCC3)C[C@@H]2C1=O
573 nM	C=C1C(C(=O)NCc2ccco2)C1C(=O)NCc1ccco1 (configuration not stated)
inactive	CCN(C(=O)C1COc2ccccc2O1)C12CC3CC(CC(C3)C1)C2 (configuration not stated)
> 4620 nM (inactive)	O=C1OC(c2cccc([N+](=O)[O-])c2)=N/C1=C\c1ccc(OCc2ccccc2)cc1
826 nM	CCC[C@@H]1NC(=O)[C@H]2CN(C(=O)NCc3ccccc3)CCN2C1=O
> 2160 nM (inactive)	O=C1N[C@@H](Cc2ccc(O)cc2)C(=O)N2CCN(C(=O)NC3CCCCC3)C[C@H]12
> 6480 nM (inactive)	C=CCNCCOCCOc1ccc(OCC)cc1
232 nM	O=C1c2c(O)cccc2Cc2cccc(O)c21
> 6480 nM (inactive)	CN(C)C(=O)N1CCN(S(=O)(=O)c2cccc([N+](=O)[O-])c2)CC1
inactive	O=C(CN1C(=O)NC2(CCCCCC2)C1=O)NC(=O)NCc1ccco1
527 nM	O=C(/C=C/c1ccco1)NC(=S)Nc1ccc(Cl)c(C(=O)O)c1
> 6480 nM (inactive)	CCOC(=O)Cc1[nH]nc2c1C1(C(=O)N(CC)c3ccccc31)C(C#N)=C(N)O2 (configuration not stated)
inactive	O=C(CSc1nsc(SCC(=O)Nc2ccc(Cl)c(Cl)c2)n1)Nc1ccc(Cl)c(Cl)c1
> 5480 nM (inactive)	O=C(c1ccc([N+](=O)[O-])cc1)N1CCN(Cc2cccc3ccccc23)CC1
468 nM	COc1cc(C)c2c(c1C=O)Oc1c(c(C)c(O)c3c1C(O)OC3=O)OC2=O (configuration not stated)
> 5360 nM (inactive)	O=S(=O)(N=S(=O)(/C=C/c1ccccc1)c1ccccc1)c1ccccc1 (configuration not stated)
inactive	COc1cccc(CN2CCN(C(=O)c3ccc(F)cc3)CC2)c1

IC50	Compound
inactive	Cc1[nH][nH]c(=O)c1C(c1ccccc1OCc1ccc(Br)cc1)c1c(C)[nH][nH]c1=O
951 nM	O=C(Nc1cc(S(=O)(=O)O)cc2cc(S(=O)(=O)O)cc(O)c12)c1ccccc1
inactive	O=C(CCCCC1SCC2NC(=O)NC21)NC1(c2ccc(F)cc2)CCCC1 (configuration not stated)
inactive	O=C1CCCC2=C1C(c1ccc([N+](=O)[O-])o1)C1=C(CCCC1=O)O2
> 5780 nM (inactive)	CCOc1ccc(CN2CCN(Cc3cccnc3)CC2)cc1
306 nM	Cc1ccc(CCC(=O)Nc2ccc(-c3cn4c5c(nnc4n3)CCCC5)cc2)o1
inactive	O=C(c1ccncc1)N1C2C=CC(C2)C1(C(F)(F)F)C(F)(F)F (configuration not stated)
inactive	CN(C)CCS(=O)c1cc(-c2cn[nH]c2)ccc1NC(=O)[C@H]1Cc2cc(F)ccc2CN1 (some centres not stated)
> 6480 nM (inactive)	c1ccc(COc2ccc(OCCCCn3ccnc3)cc2)cc1
156 nM	O=S(=O)(O)c1cc(S(=O)(=O)O)c2cc(O)c(S(=O)(=O)O)cc2c1
inactive	O=C(COC(=O)c1cc(-c2ccco2)nc2ccccc12)NC1CC1
467 nM	N#CC(C#N)=C(N)/C(C#N)=C/c1ccc([N+](=O)[O-])o1
> 6110 nM (inactive)	COc1ccc(OC)c(CN2CCN(Cc3ccc(F)cc3)CC2)c1
> 6480 nM (inactive)	COc1ccc2c(c1)CC(c1nc(Nc3ccc4cnccc4c3)c3ccccc3n1)CO2 (configuration not stated)
693 nM	N#C/C(=C(/O)COC(=O)c1cc2c(s1)CCC2)c1nc2ccccc2[nH]1
99.3 nM	COC(=O)CSc1nnc(-c2ccco2)n1Cc1ccco1
inactive	COc1cc(N2CCOCC2)ccc1Nc1cc(Nc2ccccc2-n2cccn2)c(C(F)(F)F)cn1
inactive	CC(=O)Oc1cc(C(=O)OCC(=O)Nc2ccc(C)cc2)cc(OC(C)=O)c1OC(C)=O
> 6480 nM (inactive)	COc1cc(CN2CCN(C3CCCC3)CC2)cc(OC)c1OC
211 nM	NC(=O)n1c(CCC(=O)O)nc2sc3c(c2c1=O)CCC3
inactive	CNC(=O)COc1cc(-c2cn[nH]c2)ccc1NC(=O)C1COc2ccc(OC)cc2C1 (configuration not stated)
> 6480 nM (inactive)	CCCCNCCOc1ccccc1OCC
146 nM	O=C(O)c1ccc(CS(=O)(=O)c2ccccc2)o1

IC50	Compound
32 nM	O=C(CCc1ccco1)Nc1ccc(-c2cn3c4c(nnc3n2)CCCC4)cc1
85.5 nM	O=C(Cc1cccs1)N/N=C\C=C\c1ccco1
> 6480 nM (inactive)	CCOC(=O)C1CCCN(Cc2cccc(Br)c2)C1 (configuration not stated)
981 nM	COc1ccc(OC)c(NC(=O)c2cc3ccc(O)cc3oc2=Nc2ccc(C(=O)O)cc2)c1
inactive	CN(C)c1ccc(NC(=O)CSc2ncccc2C(=O)O)cc1
inactive	CC1CCC(N2CCN(Cc3ccco3)CC2)CC1 (configuration not stated)
207 nM	S=c1[nH]nc(-c2ccncc2)n1/N=C/C=C/c1ccco1
inactive	CN(C)CCN(C(=O)OCc1ccccc1)c1cc(-c2cn[nH]c2)ccc1NC(=O)OCc1ccccc1
inactive	O=C(/C=C/c1ccco1)Nc1c[nH]c(=O)[nH]c1=O
> 6710 nM (inactive)	O=C(Nc1ccc(Oc2ccccc2)cc1)c1ccnc(-c2cccs2)c1
122 nM	O=C(COC(=O)/C=C/c1ccco1)COC(=O)/C=C/c1ccco1
> 6480 nM (inactive)	Cc1[nH][nH]c(=O)c1C(c1ccc([N+](=O)[O-])o1)c1c(C)[nH][nH]c1=O
inactive	O=C1N[C@@H](Cc2c[nH]c3ccccc23)C(=O)N2CCN(C(=O)NC3CCCCC3)C[C@H]12
> 4800 nM (inactive)	COc1cccc(C(=O)N2CCN(Cc3cccc(Cl)c3)CC2)c1
> 6260 nM (inactive)	O=C(NCCc1ccc(O)cc1)c1cccc(-c2cccs2)c1
inactive	O=C(O)c1ccc(O)c(C=Nc2ccc(N=Cc3cc(C(=O)O)ccc3O)cc2)c1
inactive	O=C(O)c1cc([N+](=O)[O-])cc2c1-c1c(cc([N+](=O)[O-])cc1[N+](=O)[O-])/C2=C/c1ccco1
> 6480 nM (inactive)	O=C(/C=C/c1ccco1)Nc1nnc(-c2ccco2)s1
inactive	NC(=O)c1cc(NC(=O)COC(=O)COc2cccc(C(F)(F)F)c2)cc(C(N)=O)c1
inactive	CN1C(=O)[C@H]2CN(C(=O)NCc3ccccc3)CCN2C(=O)[C@@H]1Cc1ccccc1
inactive	CC(C)[C@H]1NC(=O)[C@H]2CN(C(=O)NCc3ccccc3)CCN2C1=O
inactive	O=c1[nH]cccc1-c1ccc(Nc2nccc(-c3ccc4nc(C5CC5)[nH]c(=O)c4c3)n2)cc1

Compound	IC50
CCOC(=O)C1C2NC(=S)N(CC)C1(C)Oc1ccc(Cl)cc12 (configuration not stated)	inactive
COC(=O)C1=C(C(=O)OC)C2c3ccccc3C=CN2C(C(=O)OC)=C1C(=O)OC (configuration not stated)	> 4070 nM (inactive)
N/C(=N\[N+](=O)[O-])N/N=C\c1ccc(-c2ccc(O)c(C(=O)O)c2)o1	129 nM
Cc1cccc(OCC(=O)N2CCN(Cc3cccc(Br)c3)CC2)c1	> 6480 nM (inactive)
